In brackets after ≈: the same amount, converted by molar mass.
How the values were obtained:
Assay in all cases: MIC by serial dilution on Iso-Sensitest Agar
Type in all cases: cell-based
Providencia sp. 12012 = settings: 37° C., about 20 hours, about 10^4 colony-forming particles
Experimental: (§1) The minimum inhibitory concentrations (MIC) of the compounds according to the invention were determined by serial dilution methods on Iso-Sensitest Agar (Oxoid). For each test substance, a number of agar plates were prepared which, in each case at double the dilution, contained decreasing concentrations of the active compound. The agar plates were inoculated using a multipoint inoculator (Denley). For inoculation, overnight cultures of the pathogens were used which had previously been diluted such that each inoculation point contained about 10^4 colony-forming particles. The inoculated agar plates were incubated at 37° C., and the bacterial growth was read off after about 20 hours. The MIC value (μg/ml) indicates the lowest active compound concentration at which no growth was to be observed using the naked eye.

Klebsiella pneumonia 63 = settings: Klebsiella pneumoniae, 37° C., about 20 hours, about 10^4 colony-forming particles
Experimental: as §1

[1] = system: Klebsiella pneumonia 8085; settings: Klebsiella pneumoniae, 37° C., about 20 hours, about 10^4 colony-forming particles
Experimental: as §1

[2] = system: Staphylococcus aureus ATCC29213; settings: 37° C., about 20 hours, about 10^4 colony-forming particles
Experimental: as §1

[3] = system: Staphylococcus aureus ICB 25768; settings: ICB25768, 37° C., about 20 hours, about 10^4 colony-forming particles
Experimental: as §1

[4] = system: Staphylococcus aureus 133; settings: 37° C., about 20 hours, about 10^4 colony-forming particles
Experimental: as §1

[5] = system: Staphylococcus aureus ICB 25701; settings: ICB25701, 37° C., about 20 hours, about 10^4 colony-forming particles
Experimental: as §1

[6] = system: Enterococcus faecalis 27101; settings: 37° C., about 20 hours, about 10^4 colony-forming particles
Experimental: as §1

E. coli Neumann = settings: Escherichia coli, 37° C., about 20 hours, about 10^4 colony-forming particles
Experimental: as §1

E. coli ATCC 25922 = settings: Escherichia coli, ATCC25922, 37° C., about 20 hours, about 10^4 colony-forming particles
Experimental: as §1

[7] = system: Enterococcus faecalis 9790; settings: 37° C., about 20 hours, about 10^4 colony-forming particles
Experimental: as §1

Micrococcus luteus 9341 = settings: 37° C., about 20 hours, about 10^4 colony-forming particles
Experimental: as §1

MIC (Providencia sp. 12012) | MIC (Klebsiella pneumonia 63) | MIC [1] | MIC [2] | MIC [3] | MIC [4] | MIC [5] | MIC [6] | MIC (E. coli Neumann) | MIC (E. coli ATCC 25922) | MIC [7] | MIC (Micrococcus luteus 9341) | Structure (SMILES)
≤ 0.015 µg/mL | ≤ 0.015 µg/mL | ≤ 0.015 µg/mL | ≤ 0.015 µg/mL | 32 µg/mL (≈ 77 µM) | ≤ 0.015 µg/mL | 0.5 µg/mL (≈ 1.2 µM) | 0.03 µg/mL (≈ 0.0722 µM) | ≤ 0.015 µg/mL | ≤ 0.015 µg/mL | 0.03 µg/mL (≈ 0.0722 µM) | 0.125 µg/mL (≈ 0.301 µM) | O=C(O)c1c(=O)c2cc(F)c(N3C[C@@H]4CCCN[C@@H]4C3)c3c2n2c(csc12)CO3 [Example 2]
≤ 0.015 µg/mL | ≤ 0.015 µg/mL | ≤ 0.015 µg/mL | ≤ 0.015 µg/mL | 0.5 µg/mL (≈ 1.13 µM) | ≤ 0.015 µg/mL | 0.06 µg/mL (≈ 0.136 µM) | ≤ 0.015 µg/mL | ≤ 0.015 µg/mL | ≤ 0.015 µg/mL | ≤ 0.015 µg/mL | ≤ 0.015 µg/mL | CNC1C=CCC2CN(c3c(F)cc4c(=O)c(C(=O)O)c5scc6n5c4c3OC6)CC21 (stereo not drawn) [Example 3, 7-Fluoro-8-(2-methylamino-8-azabicyclo[4.3.0]non-3-en-8-yl)-5-oxo-9,1-(epoxymethano)-5H-thiazolo[3,2-a]quinoline-4-carboxylic acid]
≤ 0.015 µg/mL | ≤ 0.015 µg/mL | ≤ 0.015 µg/mL | ≤ 0.015 µg/mL | 0.25 µg/mL (≈ 0.585 µM) | ≤ 0.015 µg/mL | 0.06 µg/mL (≈ 0.14 µM) | ≤ 0.015 µg/mL | ≤ 0.015 µg/mL | ≤ 0.015 µg/mL | ≤ 0.015 µg/mL | ≤ 0.015 µg/mL | NC1C=CCC2CN(c3c(F)cc4c(=O)c(C(=O)O)c5scc6n5c4c3OC6)CC12 (stereo not drawn) [Example 4, 8-(2-Amino-8-azabicyclo[4.3.0]non-3-en-8-yl)-7-fluoro-5-oxo-9,1-(epoxymethano)-5H-thiazolo[3,2-a]quinoline-4-carboxylic acid]
≤ 0.015 µg/mL | ≤ 0.015 µg/mL | ≤ 0.015 µg/mL | ≤ 0.015 µg/mL | 0.5 µg/mL (≈ 1.13 µM) | ≤ 0.015 µg/mL | 0.06 µg/mL (≈ 0.136 µM) | ≤ 0.015 µg/mL | ≤ 0.015 µg/mL | ≤ 0.015 µg/mL | ≤ 0.015 µg/mL | ≤ 0.015 µg/mL | CC1C=CC(N)C2CN(c3c(F)cc4c(=O)c(C(=O)O)c5scc6n5c4c3OC6)CC12 (stereo not drawn) [Example 5, 8-(2-Amino-5-methyl-8-azabicyclo[4.3.0]non-3-en-8-yl)-7-fluoro-5-oxo-9,1-(epoxymethano)-5H-thiazolo[3,2-a]quinoline-4-carboxylic acid]
